Data published in patent publication US20090238808A1, “Process for the identification of novel enzyme interacting compounds” (priority 2005, published 2009).

Columns and labels:
Assay in all cases: In-lysate competition binding with kinobeads, Jurkat lysate, iTRAQ MS, relative intensity of identified proteins (Table 22)
Settings in all cases: DMSO control = 1.0
[1] = biological target: T1, proteins captured on kinobeads from Jurkat cell lysate (Homo sapiens, UniProt Q00535)
T1 construct: endogenous in cells; host or cells: Jurkat clone E6-1 lysate
T1 sequence (Q00535 whole entry): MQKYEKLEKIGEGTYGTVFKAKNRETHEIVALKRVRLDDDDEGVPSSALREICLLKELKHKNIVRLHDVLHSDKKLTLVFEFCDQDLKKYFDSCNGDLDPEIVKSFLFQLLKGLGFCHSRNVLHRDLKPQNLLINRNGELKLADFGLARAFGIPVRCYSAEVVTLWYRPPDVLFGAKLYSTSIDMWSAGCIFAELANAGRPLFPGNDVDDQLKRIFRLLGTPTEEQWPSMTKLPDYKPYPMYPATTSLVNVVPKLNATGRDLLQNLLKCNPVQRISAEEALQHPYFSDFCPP
Method: (§1) This example illustrates competition binding in cell lysates (see particularly the third aspect of the invention). A test compound, Bisindolylmaleimide VIII (Bis VIII, a well known kinase inhibitor; Davies et al., 2000. Specificity and mechanism of action of some commonly used protein kinase inhibitors. Biochemical Journal 351 (Pt 1): 95-105) was added to a cell lysate thereby allowing the test compound to bind to the target proteins in the lysate. Then the lysate was contacted with the kinobeads affinity matrix to capture remaining free target proteins. The proteins bound to the kinobeads matrix were then eluted with detergent-containing buffer, separated on a SDS-polyacryamide gel and analyzed by immunodetection (Western blots) or mass spectrometry detection.
(§2) For the quantitative detection of proteins by mass spectrometry proteins were eluted from the affinity matrix and subsequently separated by SDS-Polyacrylamide gel elecrophoresis. Suitable gel areas were cut out and subjected to in-gel proteolytic digestion with trypsin.
(§3) Four tryptic digest samples (corresponding to three different Bis VIII concentrations in the lysate and one DMSO control) were labeled with ITRAQ reagents and the combined samples were analyzed in a single LC-MS/MS mass spectrometry analysis followed by peak quantification in the MS/MS spectrum (Ross et al., 2004. Multiplexed protein quantitation in Saccharomyces cerevisiae using amine-reactive isobaric tagging reagents. Mol. Cell. Proteomics 3(12): 1154-1169). […] Binding curves for individual kinases are shown (FIG. 5). The relative intensity 50 (RI50) values representing the affinity of kinase-compound pairs are similar to IC50 values reported by kinase enzyme assays (Davies et al., 2000. Specificity and mechanism of action of some commonly used protein kinase inhibitors. Biochemical Journal 351 (Pt 1): 95-105).
(§4) Aliqots of Jurkat lysate (10 mg protein) were incubated with different Bis VIII concentrations for one hour at 4° C. (0.025 μM, 0.074 μM, 0.22 μM, 0.67 μM, 2.0 μM and 6.0 μM final concentration of Bis VIII). To this end Bis VIII solutions were prepared in 100% DMSO as solvent that corresponded to 200 fold desired final Bis VIII concentration (Bis VIII from Alexis Biochemicals cat. number ALX 270-056). Five μl of these solutions were added to 1 ml of lysate resulting in the indicated final concentrations. For a control experiment 5 μl of DMSO without Bis VIII were used.
(§5) To each preincubated lysate sample 40 μl of kinobeads (see example 1) were added and incubated for one hour at 4° C. During the incubation the tubes were rotated on an end-over-end shaker (Roto Shake Genie, Scientific Industries Inc.). Beads were collected by centrifugation, transfered to Mobicol-columns (MoBiTech 10055) and washed with 10 ml 1×DP buffer containing 0.4% NP40 detergent, followed by a wash with 5 ml 1×DP buffer with 0.2% NP40. To elute the bound proteins, 100 μl 2×SDS sample buffer was added, the column was heated for 30 minutes at 50° C. and the eluate was transferred to a microfuge tube by centrifugation. Proteins were then separated by SDS-Polyacrylamide electrophoresis (SDS-PAGE). The composition and preparation of buffers is described in example 2.
(§6) The peptide extracts of samples treated with different concentrations of the test compound (0.074 μM, 0.22 μM and 0.67 μM Bis VIII) and the solvent control (0.5% DMSO) were treated with different isomers of the isobaric tagging reagent (iTRAQ Reagents Multiplex Kit, part number 4352135, Applied Biosystems, Foster City, Calif., USA). The iTRAQ reagents are a set of multiplexed, amine-specific, stable isotope reagents that can label all peptides in up to four different biological samples enabling simultaneous identification and quantitation of peptides. The iTRAQ reagents were used according to instructions provided by the manufacturer. […]

[2] = biological target: T2, proteins captured on kinobeads from Jurkat cell lysate (Homo sapiens, UniProt P16083)
T2 construct: endogenous in cells; host or cells: Jurkat clone E6-1 lysate
T2 sequence (P16083 whole entry): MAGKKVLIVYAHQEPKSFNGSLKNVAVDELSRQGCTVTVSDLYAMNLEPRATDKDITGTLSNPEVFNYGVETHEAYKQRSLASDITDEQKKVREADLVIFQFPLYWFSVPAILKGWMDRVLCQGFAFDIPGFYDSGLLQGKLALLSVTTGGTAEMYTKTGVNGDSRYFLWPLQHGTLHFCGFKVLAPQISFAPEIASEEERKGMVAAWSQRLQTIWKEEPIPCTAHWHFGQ
Method: as §1, §2, §3, §4, §5, §6

[3] = biological target: T3, proteins captured on kinobeads from Jurkat cell lysate (Homo sapiens, UniProt O14976)
T3 construct: endogenous in cells; host or cells: Jurkat clone E6-1 lysate
T3 sequence (O14976 whole entry): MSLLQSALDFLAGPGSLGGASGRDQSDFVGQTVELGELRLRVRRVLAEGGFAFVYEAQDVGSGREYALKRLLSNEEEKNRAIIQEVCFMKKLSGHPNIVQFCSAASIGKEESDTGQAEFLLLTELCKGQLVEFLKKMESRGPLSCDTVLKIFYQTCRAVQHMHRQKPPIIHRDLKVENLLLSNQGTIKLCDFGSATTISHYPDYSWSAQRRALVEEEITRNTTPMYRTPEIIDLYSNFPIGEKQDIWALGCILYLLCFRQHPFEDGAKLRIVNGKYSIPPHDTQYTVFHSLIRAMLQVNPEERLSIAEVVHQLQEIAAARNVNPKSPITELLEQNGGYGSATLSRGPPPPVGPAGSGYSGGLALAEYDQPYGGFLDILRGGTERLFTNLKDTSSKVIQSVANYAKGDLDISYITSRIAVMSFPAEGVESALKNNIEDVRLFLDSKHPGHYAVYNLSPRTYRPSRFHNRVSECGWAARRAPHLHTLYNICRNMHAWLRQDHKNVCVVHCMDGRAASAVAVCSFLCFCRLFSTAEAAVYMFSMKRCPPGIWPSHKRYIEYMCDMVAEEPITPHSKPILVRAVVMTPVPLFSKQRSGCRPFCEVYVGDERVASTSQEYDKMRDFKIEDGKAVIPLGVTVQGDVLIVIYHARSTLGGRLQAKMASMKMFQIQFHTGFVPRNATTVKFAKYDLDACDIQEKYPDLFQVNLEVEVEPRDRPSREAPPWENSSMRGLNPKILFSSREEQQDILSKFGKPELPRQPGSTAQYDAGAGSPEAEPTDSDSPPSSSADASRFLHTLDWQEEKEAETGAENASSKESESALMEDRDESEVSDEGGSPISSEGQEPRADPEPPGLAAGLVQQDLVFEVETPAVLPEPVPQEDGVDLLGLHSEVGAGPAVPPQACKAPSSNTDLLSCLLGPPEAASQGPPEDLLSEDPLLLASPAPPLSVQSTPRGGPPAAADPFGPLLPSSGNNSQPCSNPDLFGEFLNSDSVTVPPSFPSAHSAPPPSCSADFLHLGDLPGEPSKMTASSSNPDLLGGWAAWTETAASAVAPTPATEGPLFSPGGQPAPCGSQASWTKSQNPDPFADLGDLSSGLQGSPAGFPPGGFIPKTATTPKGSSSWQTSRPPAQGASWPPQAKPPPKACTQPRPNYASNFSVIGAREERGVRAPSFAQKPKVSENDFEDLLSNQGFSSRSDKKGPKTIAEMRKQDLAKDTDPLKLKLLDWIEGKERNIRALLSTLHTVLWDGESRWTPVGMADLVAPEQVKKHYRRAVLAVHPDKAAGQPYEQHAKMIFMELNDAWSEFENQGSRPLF
Method: as §1, §2, §3, §4, §5, §6

[4] = biological target: T4, proteins captured on kinobeads from Jurkat cell lysate (Homo sapiens, UniProt O14965)
T4 construct: endogenous in cells; host or cells: Jurkat clone E6-1 lysate
T4 sequence (O14965 whole entry): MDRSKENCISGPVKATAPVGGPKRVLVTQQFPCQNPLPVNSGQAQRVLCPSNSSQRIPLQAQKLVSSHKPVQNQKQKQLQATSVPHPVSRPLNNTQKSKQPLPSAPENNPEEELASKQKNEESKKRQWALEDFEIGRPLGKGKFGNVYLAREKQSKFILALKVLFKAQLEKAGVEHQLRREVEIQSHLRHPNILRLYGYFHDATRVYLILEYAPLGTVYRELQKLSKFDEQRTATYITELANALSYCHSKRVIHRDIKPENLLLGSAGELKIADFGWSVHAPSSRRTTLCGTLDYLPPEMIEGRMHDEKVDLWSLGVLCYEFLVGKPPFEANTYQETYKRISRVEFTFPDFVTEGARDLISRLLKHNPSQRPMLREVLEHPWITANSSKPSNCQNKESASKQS
Method: as §1, §2, §3, §4, §5, §6

Relative Intensity, CDK5 ([1]; 0.074 uM in lysate): 0.92
Relative Intensity, CDK5 ([1]; 0.67 uM in lysate): 0.95
Relative Intensity, NQO2 ([2]; 0.074 uM in lysate): 0.87
Relative Intensity, NQO2 ([2]; 0.67 uM in lysate): 0.78
Relative Intensity, GAK ([3]; 0.074 uM in lysate): 0.92
Relative Intensity, GAK ([3]; 0.67 uM in lysate): 0.97
Relative Intensity, AurA (STK6) ([4]; 0.074 uM in lysate): 0.90
Relative Intensity, AurA (STK6) ([4]; 0.67 uM in lysate): 0.87
SMILES: Cn1cc(C2=C(c3cn(CCCN)c4ccccc34)C(=O)NC2=O)c2ccccc21 [Bis VIII, Bisindolylmaleimide VIII]
